Earlier results, collected in article PMC11584006, “Structural characterization and AlphaFold modeling of human T cell receptor recognition of NRAS cancer neoantigens” (Science Advances, 2024).

Test system: T cells transduced with these TCRs
Details: for peptide concentration at which TCR-transduced T cells can be activated: APCs pulsed with peptide, wild-type tested at >1000-fold higher concentrations
Description: KRAS is the most highly mutated RAS isoform across cancers, accounting for ~85% of all RAS mutations with especially high frequencies in pancreatic and colorectal cancers ([12], [13]). However, NRAS mutations dominate in melanomas, with mutations at position 61 appearing in ~20% of patients ([14]). The two most frequent mutations are Q61K and Q61R ([15]). Mutant NRAS melanomas have more aggressive clinical features and poorer outcomes compared to nonmutant NRAS melanomas ([16]–[18]). […] This HLA-A*01:01–restricted TCR recognizes the NRAS^Q61K and NRAS^Q61R neoepitopes using gene segments TRDV1 and TRAJ27-1 for the α chain and TRBV27 and TRBJ2-5 for the β chain. […] Recombinant TCR and pMHC proteins were expressed by in vitro folding from bacterial inclusion bodies. Biotinylated wild-type NRAS–HLA-A1, NRAS ...

Row | Sequence | peptide concentration at which TCR-transduced T cells can be activated | concentration of peptide required for recognition (peptide titrations), relative to NRAS^Q61K (peptide titrations, HLA-A*01:01)
1 | ILDTAGQEEY [wild-type NRAS peptide, reference compound] | do not respond | –
2 | ILDTAGREEY [NRAS^Q61R, NRAS^Q61R peptide ([…])] | subnanomolar | a higher concentration
3 | ILDTAGKEEY [NRAS^Q61K, NRAS^Q61K peptide ([…]), residues 55 to 64] | subnanomolar | –
